As a reminder, the IC50 is the concentration that gives 50% inhibition.

This experiment concerns the target T1, wild-type HIV-1 protease (Human immunodeficiency virus type 1 group M subtype B, UniProt P04585).
T1 construct: Escherichia coli expressed wild-type HIV-1 protease protein
In words: Assay for Inhibition of Microbial Expressed HIV Protease (peptide substrate cleavage, LC-MS/MS readout). The class given is biochemical. The note with it: E. coli expressed wild-type HIV-1 protease, mean of at least two independent experiments, read-out: HIV Pr Enzyme HIV1 PR IC50. A digest of the protocol:
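E. coli-expressed wild-type HIV-1 protease ([…]) was preincubated with inhibitor 30 min at room temperature in pH 5.5 acetate buffer (100 mM NaCl, 0.1% BSA). Then 400 μM octapeptide substrate was added and reacted 1 h at 30 °C; inhibition came from LC-MS/MS product peak areas, mean of ≥2 experiments.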
Take `N=C1N[C@](CCCC(F)(F)F)(c2ccc(F)cc2)C(=O)N1Cc1ccc(C(F)(F)F)c(C(=O)N2Cc3cnc(-c4cnn(CCN5CCOCC5)c4)nc3C2)c1` [Compound 33, (5R)-5-(4-fluorophenyl)-2-imino-3-[3-({2-[1-(2-morpholin-4-ylethyl)-1H-pyrazol-4-yl]-5,7-dihydro-6H-pyrrolo[3,4-d]pyrimidin-6-yl}carbonyl)-4-(trifluoromethyl)-benzyl]-5-(4,4,4-trifluorobutyl)-imidazolidin-4-one]: the IC50 stood at 3.26 nM.
For `CC(C)CCC1(c2ccc(F)cc2)NC(=N)N(Cc2cccc(C(=O)N3Cc4nccnc4C3)c2)C1=O` (centres unmarked) [Compound 252, 3-[3-(5,7-dihydro-6H-pyrrolo[3,4-b]pyrazin-6-ylcarbonyl)benzyl]-5-(4-fluorophenyl)-2-imino-5-(3-methylbutyl)imidazolidin-4-one], the IC50 is 19.8 nM.
In the case of `N=C1N[C@](CCCC(F)(F)F)(c2ccc(F)cc2)C(=O)N1Cc1ccc(C(F)(F)F)c(C(=O)N2Cc3cnc(N[C@@H]4CCOC4)nc3C2)c1` [Compound 36, (5R)-5-(4-fluorophenyl)-2-imino-3-[3-({2-[(3R)-tetrahydrofuran-3-ylamino]-5,7-dihydro-6H-pyrrolo[3,4-d]pyrimidin-6-yl}carbonyl)-4-(trifluoromethyl)-benzyl]-5-(4,4,4-trifluorobutyl)-imidazolidin-4-one], the IC50 was 3.51 nM.
As for `COc1ccc(CN2C(=N)NC(c3ccc(Cl)cc3)(c3ccc(Cl)cc3)C2=O)cc1C(=O)N1Cc2ccccc2C1` [Compound 388, 5,5-bis(4-chlorophenyl)-3-[3-(1,3-dihydro-2H-isoindol-2-ylcarbonyl)-4-methoxybenzyl]-2-iminoimidazolidin-4-one], the IC50 worked out at 54.3 nM.
In the case of `CC1CN(C(=O)c2cccc(CN3C(=N)NC(c4ccccc4)(c4ccccc4)C3=O)c2)Cc2nnc(C(F)(F)F)n21` (centres unmarked) [Compound 282, 2-imino-3-(3-{[5-methyl-3-(trifluoromethyl)-5,6-dihydro[1,2,4]triazolo[4,3-a]pyrazin-7(8H)-yl]carbonyl}benzyl)-5,5-diphenylimidazolidin-4-one], the IC50 was determined as 31.4 nM.
Next, `CC(C)Nc1ncc2c(n1)CN(C(=O)c1cc(CN3C(=N)N[C@](CCCC(F)(F)F)(c4ccc(F)cc4)C3=O)ccc1C(F)(F)F)C2` [Compound 51, (5R)-5-(4-fluorophenyl)-2-imino-3-[3-({2-[(1-methylethyl)amino]-5,7-dihydro-6H-pyrrolo[3,4-d]pyrimidin-6-yl}carbonyl)-4-(trifluoromethyl)benzyl]-5-(4,4,4-trifluorobutyl)imidazolidin-4-one]: 5.51 nM.
Consider `Cc1nnc(-c2cccc(-c3ncc4c(n3)CN(C(=O)c3cc(CN5C(=N)N[C@](CCCC(F)(F)F)(c6ccc(F)cc6)C5=O)ccc3C(F)(F)F)C4)c2)o1` [Compound 48, (5R)-5-(4-fluorophenyl)-2-imino-3-[3-({2-[3-(5-methyl-1,3,4-oxadiazol-2-yl)phenyl]-5,7-dihydro-6H-pyrrolo[3,4-d]pyrimidin-6-yl}carbonyl)-4-(trifluoromethyl)-benzyl]-5-(4,4,4-trifluorobutyl)-imidazolidin-4-one], for which the IC50 was found to be 5.26 nM.
On to `N=C1N[C@](CCCC(F)(F)F)(c2ccc(F)cc2)C(=O)N1Cc1ccc(C(F)(F)F)c(C(=O)N2Cc3cnc(-c4ccccc4)nc3C2)c1` [Compound 94, (5R)-5-(4-fluorophenyl)-2-imino-3-{3-[(2-phenyl-5,7-dihydro-6H-pyrrolo[3,4-d]pyrimidin-6-yl)carbonyl]-4-(trifluoromethyl)-benzyl}-5-(4,4,4-trifluorobutyl)-imidazolidin-4-one], for which the IC50 worked out at 19.2 nM.
Turning to `N#Cc1ncc2c(n1)CN(C(=O)c1cncc(CN3C(=N)NC(c4ccc(F)cc4)(c4ccc(F)cc4)C3=O)c1)C2` [Compound 393, 6-[(5-{[4,4-bis(4-fluorophenyl)-2-imino-5-oxoimidazolidin-1-yl]methyl}pyridin-3-yl)carbonyl]-6,7-dihydro-5H-pyrrolo[3,4-d]pyrimidine-2-carbonitrile], the IC50 was 67.1 nM.
For `N=C1NC(c2ccccc2)(c2ccccc2)C(=O)N1Cc1ccc(C(F)(F)F)c(C(=O)N2CCN(c3ncccn3)CC2)c1` [Compound 171, 2-imino-5,5-diphenyl-3-{3-[(4-pyrimidin-2-ylpiperazin-1-yl)carbonyl]-4-(trifluoromethyl)-benzyl}imidazolidin-4-one], the IC50 amounted to 53 nM.
Regarding `N=C1N[C@](CCCC(F)(F)F)(c2ccc(F)cc2)C(=O)N1Cc1ccc(C(F)(F)F)c(C(=O)N2Cc3cnc(-c4cnn5c4CCCC5)nc3C2)c1` [Compound 28, (5R)-5-(4-fluorophenyl)-2-imino-3-[3-{[2-(4,5,6,7-tetrahydropyrazolo-[1,5-a]pyridin-3-yl)-5,7-dihydro-6H-pyrrolo[3,4-d]pyrimidin-6-yl]carbonyl}-4-(trifluoromethyl)-benzyl]-5-(4,4,4-trifluorobutyl)imidazolidin-4-one], the IC50 is 3.04 nM.
For `N=C1NC(c2ccc(F)cc2)(c2ccc(F)cc2)C(=O)N1Cc1cccc(C(=O)N2CCN(C(=O)c3ccco3)CC2)c1` [Compound 267, 5,5-bis(4-fluorophenyl)-3-(3-{[4-(furan-2-ylcarbonyl)piperazin-1-yl]carbonyl}benzyl)-2-iminoimidazolidin-4-one], the IC50 is 26.3 nM.
In the case of `CC(c1cccc(C(=O)N2Cc3cncnc3C2)c1)N1C(=N)NC(c2ccccc2)(c2ccccc2)C1=O` (centres unmarked) [Compound 266, 3-{1-[3-(5,7-dihydro-6H-pyrrolo[3,4-b]pyrazin-6-ylcarbonyl)phenyl]ethyl}-2-imino-5.5-diphenylimidazolidin-4-one] it was 26.1 nM; in that of `CC(C)(O)C(=O)N1CCN(C(=O)c2cc(CN3C(=N)N[C@](CCCC(F)(F)F)(c4ccc(F)cc4)C3=O)ccc2C(F)(F)F)CC1` [Compound 90, (5R)-5-(4-fluorophenyl)-3-[3-{[4-(2-hydroxy-2-methylpropanoyl)-piperazin-1-yl]carbonyl}-4-(trifluoromethyl)benzyl]-2-imino-5-(4,4,4-trifluorobutyl)imidazolidin-4-one], 15.8 nM.
In the case of `CC(C)CC[C@]1(c2ccccc2)NC(=N)N(C(CC(C)C)c2ccc(C(F)(F)F)c(C(=O)N3Cc4nccnc4C3)c2)C1=O` (stereo partly drawn) [Compound 5, (5R)-3-{1-[3-(5,7-dihydro-6H-pyrrolo[3,4-b]pyrazin-6-ylcarbonyl)-4-(trifluoromethyl)-phenyl]-3-methylbutyl}-2-imino-5-(3-methylbutyl)-5-phenylimidazo-lidin-4-one], the IC50 was 0.26 nM.
For the compound `CC(C)CC[C@]1(c2ccccc2)NC(=N)N([C@H](C)c2cccc(C(=O)N3Cc4nccnc4C3)c2)C1=O` [Compound 217, 3-{(1R)-1-[3-(5,7-dihydro-6H-pyrrolo[3,4-b]pyrazin-6-ylcarbonyl)phenyl]ethyl}-2-imino-5-(3-methylbutyl)-5-phenylimidazolidin-4-one], the IC50 was determined as 10.3 nM.
In the case of `CC(C)CCC1(c2ccccc2)NC(=N)N(Cc2cccc(C(=O)N3Cc4cccnc4C3)c2)C1=O` (centres unmarked) [Compound 218, 3-[3-(5,7-dihydro-6H-pyrrolo[3,4-b]pyridin-6-ylcarbonyl)benzyl]-2-imino-5-(3-methylbutyl)-5-phenylimidazolidin-4-one], the IC50 was found to be 10.5 nM.
In the case of `N=C1N[C@](CCCC(F)(F)F)(c2ccc(F)cc2)C(=O)N1Cc1ccc(C(F)(F)F)c(C(=O)N2Cc3cnc(-c4ccc5ncnn5c4)nc3C2)c1` [Compound 32, (5R)-5-(4-fluorophenyl)-2-imino-3-{3-[(2-[1,2,4]triazolo[1,5-a]pyridin-6-yl-5,7-dihydro-6H-pyrrolo[3,4-d]pyrimidin-6-yl)carbonyl]-4-(trifluoromethyl)benzyl}-5-(4,4,4-trifluorobutyl)imidazolidin-4-one] it was 3.21 nM; in that of `N=C1N[C@](CCCC(F)(F)F)(c2ccc(F)cc2)C(=O)N1Cc1ccc(C(F)(F)F)c(C(=O)N2CCN(c3ccccn3)CC2)c1` [Compound 99, (5R)-5-(4-fluorophenyl)-2-imino-3-{3-[(4-pyridin-2-ylpiperazin-1-yl)carbonyl]-4-(trifluoromethyl)-benzyl}-5-(4,4,4-trifluorobutyl)-imidazolidin-4-one], 21.4 nM.
Next, `CC(C)CC1(c2ccccc2)NC(=N)N(Cc2ccc(Cl)c(C(=O)N3Cc4cccnc4C3)c2)C1=O` (centres unmarked) [Compound 366, 3-[4-chloro-3-(5,7-dihydro-6H-pyrrolo[3,4-b]pyridin-6-ylcarbonyl)benzyl]-2-imino-5-(2-methylpropyl)-5-phenylimidazolidin-4-one]: 5.08 nM; `N=C1NC(CCC2CC2)(c2ccc(C(F)(F)F)cc2)C(=O)N1Cc1ccc(C(F)(F)F)c(C(=O)N2CCn3c(nnc3C(F)(F)F)C2)c1` (centres unmarked) [Compound 125, 5-(2-cyclopropylethyl)-2-imino-5-[4-(trifluoromethyl)phenyl]-3-[4-(trifluoromethyl)-3-{[3-(trifluoromethyl)-5,6-dihydro-[1,2,4]triazolo[4,3-a]pyrazin-7(8H)-yl]carbonyl}benzyl] imidazolidin-4-one]: 57.2 nM.
In the case of `COC(=O)N1CCN(C(=O)c2cccc(CN3C(=N)NC(c4ccc(F)cc4)(c4cccc(Br)c4)C3=O)c2)CC1` (centres unmarked) [Compound 240, methyl 4-[(3-{[4-(3-bromophenyl)-4-(4-fluorophenyl)-2-imino-5-oxoimidazolidin-1-yl]methyl}phenyl)carbonyl] piperazine-1-carboxylate] it was 15.2 nM.
For `CCC(c1cccc(C(=O)N2Cc3cncnc3C2)c1)N1C(=N)NC(c2ccccc2)(c2ccccc2)C1=O` (centres unmarked) [Compound 263, 3-{1-[3-(5,7-dihydro-6H-pyrrolo[3,4-d]pyrimidin-6-ylcarbonyl)phenyl]propyl}-2-imino-5,5-diphenylimidazolidin-4-one], the IC50 came out at 24.7 nM.

Source of the values: patent publication US20200069691A1, “HETEROCYCLIC COMPOUNDS AS HIV PROTEASE INHIBITORS” (Merck Sharp & Dohme Corp., priority 2016, published 2020).
